# In patent publication EP1897937A1, “Method of culturing NPCs” (NeuroProgen GmbH Leipzig, priority 2006, dated 2008):
# Key:
# Format in all cases: cell-based, human
# [1] = system: hmNPCs; test: Western blot of proliferation marker PCNA and survival marker Bcl-2; conditions: 100 µM antagonist, 2 times during the 2 weeks proliferation period, before 1 µM UTP
# Method: To determine long-term proliferation, hmNPCs were plated and expanded for 2 passages with or without addition of various agents (see below) to the custom expansion media containing the growth factors EGF and FGF2. Different fetal midbrain tissues were included in this study. At the end of the proliferation period, differentiation of hmNPCs was induced via replacement of expansion media with mitogen-free media containing 1% FCS, 5 µM forskoline (Sigma-Aldrich Chemie GmbH Munich, Germany), and 100 pg/ml IL-1β (Sigma). The differentiation and expansion media were supplemented with different drugs as appropriate. Prior to immunocytochemistry or protein extraction, hmNPCs were allowed to differentiate for 1 week. To determine short-term proliferation via Ki67 immunostaining, the cells were seeded into 24-well plates (70,000 cells/well) and left overnight to rest. P2 receptor agonists (ATP, UTP, ATP + UTP, ADP, ADPβS) were supplied daily for 5 consecutive days. Ki67/nestin double-positive cells were counted in 8 randomly selected fields of nucleotide-treated or untreated samples. For the assessment of MAPK phosphorylation the cells were kept free of mitogens for 2 d prior to addition of the MEK-inhibitor in expansion media. In addition, the MEK-inhibitor was added during the differentiation period 15 min before UTP administration.
# In order to prepare protein extracts, hmNPCs were collected, washed with ice-cold PBS and lysed in buffer [10 mM HEPES-KOH (pH 7.9), 10 mM KCI, 1.5 mM MgCl2, 0.1% NP-40], supplemented with protease inhibitor cocktail (Roche). After a brief centrifugation at 4°C/10 000×g, protein concentrations and protein yield from extracts were determined using the Bradford method (Bio-Rad, Hercules, CA, USA). To preserve the phosphorylation state of proteins, extracts for the MAPK experiment were obtained using the PhosphoSafe™ extraction reagent containing phophatase inhibitors (Novagen). […] The chemiluminescence was quantified using the AIDA, two-dimensional densitometry software (Raytest lsotopenmeb, Straubenhardt, Germany). […]
# [2] = system: hmNPCs; test: Cell death / cell cycle assay (propidium iodide, FACS); conditions: 30 minutes pretreatment; 10 µM suramin or 100 µM PPADS
# Method: Untreated (control) and treated exponentially growing […] were prepared for cell cycle analysis by lysing cells in 300 μl of hypotonic lysis buffer (0.1% sodium citrate, 0.1% Triton X-100, and 50 μg/ml propidium iodide [PI]). […] Histograms of DNA content were acquired using the CellQuest software. […] For data analysis and correction of the background, noise histograms were processed with the ModFit LT software (Verity, Turramurra, Australia).
# [3] = system: hmNPCs; test: Dopaminergic differentiation: TH protein expression by Western blot; conditions: pre-treatment with 100 µM antagonist; UTP 1 µM in expansion, 100 µM in differentiation
smiles,measurement,setting,value
"Cc1nc(N=Nc2ccc(S(=O)(=O)O)cc2S(=O)(=O)O)c(COP(=O)(O)O)c(C=O)c1O [PPADS, Pyridoxal-phosphate-6-azophenyl-2',4'-disulphonic acid]","PCNA expression, antagonist before UTP",[1],reduced the PCNA expression to control levels
same,"block of the anti-proliferative effects of ATP, ADP and ADPβS",[2],failed to block
same,"TH expression increase by UTP, antagonist pre-treatment",[3],completely blocked
